Assays:
[1] = target: FKBP12 ternary complex with FRB (Homo sapiens, UniProt P42345+P62942); assay: SPR assay to characterize ternary complex formation with FKBP12 (FRB injected over compound-saturated FKBP12); assay type: binding; conditions: FRB dilutions with 100 nM test compound over immobilized FKBP12
Method: Biotinylated avi-FKBP12 was immobilized on a streptavidin chip (Cytiva Series S SA) using a Biacore 8K or 8k+ (Cytiva). To achieve an immobilization level of 100 RU, 0.3 μg/ml biotinylated avi-FKBP12 were injected for 80 sec at a flow rate of 10 μl/min. Serial dilution of FRB was prepared (12 concentrations, 3-fold dilutions, 0.00011-20 μM) and supplemented with 100 nM of a test compound. A-B-A injection mode was used to ensure saturation immobilized FKBP12 with respective test compound. 100 nM solution of the respective test compound was injected before FRB injection for 120 sec and during dissociation for 420 sec. The FRB dilutions were then injected 120 seconds contact time with increasing concentrations. Rapamycin was used as reference sample. 50 mM HEPES pH 7.5, 150 mM NaCl, 2 mM MgCl2, 1 mM DTT, 0.05% Tween-20, 1% DMSO was used as running buffer at a flow rate of 30 μl/min. The multi-cycle kinetics data were fit to a 1:1 binding model to measure the association rate ka (1/Ms), the dissociation rate kd (1/s) and the affinity Kd (M). In case of fast association and dissociation, steady state affinity analysis following the law of mass action was used to determine the affinity Kd (M).

[2] = target: FKBP12 (Homo sapiens, UniProt P62942); assay: SPR assay to determine binding affinity to FKBP12 (direct binding); conditions: immobilized biotinylated avi-FKBP12, single-cycle kinetics
Method: SPR Assay to Determine Binding Affinity to FKBP12.
Biotinylated avi-FKBP12 was immobilized on a streptavidin chip (Cytiva Series S SA) using a Biacore 8K or 8k+ (Cytiva). […] Test compounds described in Table 11 were diluted in DMSO to 100× working concentration. Each test compound was 100-fold diluted in 50 mM HEPES pH 7.5, 150 mM NaCl, 2 mM MgCl2, 1 mM DTT, 0.05% Tween-20 and a serial dilution prepared (9 concentrations, 3-fold dilutions, 0.08-500 nM). […] The compound dilutions were then injected at 100 uL/min for 120 seconds contact time in sequence with increasing concentrations. Dissociation was monitored for 3600 seconds. 50 mM HEPES pH 7.5, 150 mM NaCl, 2 mM MgCl2, 1 mM DTT, 0.05% Tween-20, 1% DMSO was used as running buffer. The single-cycle kinetics data were fit to a 1:1 binding model to measure the association rate ka (1/Ms), the dissociation rate kd (1/s) and the affinity Kd (M).

[3] = target: T1, mTORC1 (Homo sapiens, UniProt P42345+P62942); assay: mTORC1 inhibition in PC-3 cells, AlphaLISA of p70S6K pT389 levels; assay type: cell-based; conditions: mTORC1 as measured by inhibition of p70S6K pT389 levels, read-out: mTROC1 IC50
T1 construct: endogenous in cells; host or cells: PC-3 cells
Method: mTORC1 inhibition was determined via analysis of phosphorylation levels of Phospho-p70 S6 kinase (p70S6K pT389) and Phospho-S6 Ribosomal Protein (pRPS6 pS240/pS244) with the corresponding AlphaLISA kits (PerkinElmer Alpha SF Ultra™ Multiplex phospho (Thr389)/total p70 S6K Assay Kit (Eu/Tb) and AlphaLISA SF Ultra™ p-Ribosomal Protein S6 (Ser240/244) Assay Kit).
%−activity=100*((Sample−Low control)/(High control−Low control))

Chain of FKBP12 (P62942 whole entry, species assumed): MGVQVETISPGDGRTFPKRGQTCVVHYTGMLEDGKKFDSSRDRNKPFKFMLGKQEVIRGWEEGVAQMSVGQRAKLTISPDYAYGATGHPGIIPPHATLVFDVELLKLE

SMILES | Kd [1] [nM] | Kd [2] [nM] | IC50 [3] [nM]
CO[C@@H]1C[C@H](C[C@@H](C)[C@@H]2CC(=O)[C@H](C)/C=C(\C)[C@@H](O)[C@@H](OC)C(=O)[C@H](C)C[C@H](C)/C=C/C=C/C=C(\C)[C@@H](OC3CC3)C[C@@H]3CC[C@@H](C)[C@@](O)(O3)C(=O)C(=O)N3CCCC[C@H]3C(=O)O2)CC[C@H]1OCCO [Compound 527, (1R,9S,12S,15R,16E,18R,19R,21R,23S,24E,26E,28E,30S,32S,35R)-30-(cyclopropoxy)-1,18-dihydroxy-12-[(1R)-2-[(1S,3R,4R)-4-(2-hydroxyethoxy)-3-methoxy-cyclohexyl]-1-methyl-ethyl]-19-methoxy-15,17,21,23,29,35-hexamethyl-11,36-dioxa-4-azatricyclo[30.3.1.04,9]hexatriaconta-16,24,26,28-tetraene-2,3,10,14,20-pentone] | < 500 | 0.3 to 1 | < 0.8
CO[C@@H]1C[C@H](C[C@@H](C)[C@@H]2CC(=O)[C@H](C)/C=C(\C)[C@@H](O)[C@@H](OC)C(=O)[C@H](C)C[C@H](C)/C=C/C=C/C=C(\C)[C@@H](OCCO)C[C@@H]3CC[C@@H](C)[C@@](O)(O3)C(=O)C(=O)N3CCCC[C@H]3C(=O)O2)CC[C@H]1OCCCN1CCOC[C@@H]1C [Compound 401, (1R,9S,12S,15R,16E,18R,19R,21R,23S,24E,26E,28E,30S,32S,35R)-1,18-dihydroxy-30-(2-hydroxyethoxy)-19-methoxy-12-[(1R)-2-[(1S,3R,4R)-3-methoxy-4-[3-[(3S)-3-methylmorpholin-4-yl]propoxy]cyclohexyl]-1-methyl-ethyl]-15,17,21,23,29,35-hexamethyl-11,36-dioxa-4-azatricyclo[30.3.1.04,9]hexatriaconta-16,24,26,28-tetraene-2,3,10,14,20-pentone] | < 500 |  | 
CO[C@@H]1C[C@H](C[C@@H](C)[C@@H]2CC(=O)[C@H](C)/C=C(\C)[C@@H](O)[C@@H](OC)C(=O)[C@H](C)C[C@H](C)/C=C/C=C/C=C(\C)[C@H](OCCCCO)C[C@@H]3CC[C@@H](C)[C@@](O)(O3)C(=O)C(=O)N3CCCC[C@H]3C(=O)O2)CC[C@H]1OCCCN1CCOCC1 [Compound 27, (1R,9S,12S,15R,16E,18R,19R,21R,23S,24E,26E,28E,30R,32S,35R)-1,18-dihydroxy-30-(4-hydroxybutoxy)-19-methoxy-12-[(1R)-2-[(1S,3R,4R)-3-methoxy-4-(3-morpholinopropoxy)cyclohexyl]-1-methyl-ethyl]-15,17,21,23,29,35-hexamethyl-11,36-dioxa-4-azatricyclo[30.3.1.04,9]hexatriaconta-16,24,26,28-tetraene-2,3,10,14,20-pentone] | 500 to 1100 | < 0.3 | 0.8 to 1.5
COCCO[C@@H]1C[C@@H]2CC[C@@H](C)[C@@](O)(O2)C(=O)C(=O)N2CCCC[C@H]2C(=O)O[C@H]([C@H](C)C[C@@H]2CC[C@@H](OCCCO)[C@H](OC)C2)CC(=O)[C@H](C)/C=C(\C)[C@@H](O)[C@@H](OC)C(=O)[C@H](C)C[C@H](C)/C=C/C=C/C=C/1C [Compound 28, (1R,9S,12S,15R,16E,18R,19R,21R,23S,24E,26E,28E,30R,32S,35R)-1,18-dihydroxy-12-[(1R)-2-[(1S,3R,4R)-4-(3-hydroxypropoxy)-3-methoxy-cyclohexyl]-1-methyl-ethyl]-19-methoxy-30-(2-methoxyethoxy)-15,17,21,23,29,35-hexamethyl-11,36-dioxa-4-azatricyclo[30.3.1.04,9]hexatriaconta-16,24,26,28-tetraene-2,3,10,14,20-pentone] | 500 to 1100 | > 1 | > 1.5
CO[C@@H]1C[C@H](C[C@@H](C)[C@@H]2CC(=O)[C@H](C)/C=C(\C)[C@@H](O)[C@@H](OC)C(=O)[C@H](C)C[C@H](C)/C=C/C=C/C=C(\C)[C@H](OC3CC3)C[C@@H]3CC[C@@H](C)[C@@](O)(O3)C(=O)C(=O)N3CCCC[C@H]3C(=O)O2)CC[C@H]1OCCO [Compound 128, (1R,9S,12S,15R,16E,18R,19R,21R,23S,24E,26E,28E,30R,32S,35R)-30-(cyclopropoxy)-1,18-dihydroxy-12-[(1R)-2-[(1S,3R,4R)-4-(2-hydroxyethoxy)-3-methoxy-cyclohexyl]-1-methyl-ethyl]-19-methoxy-15,17,21,23,29,35-hexamethyl-11,36-dioxa-4-azatricyclo[30.3.1.04,9]hexatriaconta-16,24,26,28-tetraene-2,3,10,14,20-pentone] | < 500 | > 1 | 0.8 to 1.5
CO[C@@H]1C[C@H](C[C@@H](C)[C@@H]2CC(=O)[C@H](C)/C=C(\C)[C@@H](O)[C@@H](OC)C(=O)[C@H](C)C[C@H](C)/C=C/C=C/C=C(\C)[C@H](OC3CC3)C[C@@H]3CC[C@@H](C)[C@@](O)(O3)C(=O)C(=O)N3CCCC[C@H]3C(=O)O2)CC[C@H]1O [Compound 519, (1R,9S,12S,15R,16E,18R,19R,21R,23S,24E,26E,28E,30R,32S,35R)-30-(cyclopropoxy)-1,18-dihydroxy-12-[(1R)-2-[(1S,3R,4R)-4-hydroxy-3-methoxy-cyclohexyl]-1-methyl-ethyl]-19-methoxy-15,17,21,23,29,35-hexamethyl-11,36-dioxa-4-azatricyclo[30.3.1.04,9]hexatriaconta-16,24,26,28-tetraene-2,3,10,14,20-pentone] | < 500 | < 0.3 | < 0.8
COCCO[C@H]1C[C@@H]2CC[C@@H](C)[C@@](O)(O2)C(=O)C(=O)N2CCCCC2C(=O)O[C@H]([C@H](C)C[C@@H]2CC[C@@H](OCCCN3CCN(C)CC3)[C@H](OC)C2)CC(=O)[C@H](C)/C=C(\C)[C@@H](O)[C@@H](OC)C(=O)[C@H](C)C[C@H](C)/C=C/C=C/C=C/1C (relative stereo) [Compound 431, (1R,9S,12S,15R,16E,18R,19R,21R,23S,24E,26E,28E,30S*,32S,35R)-1,18-dihydroxy-19-methoxy-30-(2-methoxyethoxy)-12-[(1R)-2-[(1S,3R,4R)-3-methoxy-4-[3-(4-methylpiperazin-1-yl)propoxy]cyclohexyl]-1-methyl-ethyl]-15,17,21,23,29,35-hexamethyl-11,36-dioxa-4-azatricyclo[30.3.1.0^4,9]hexatriaconta-16,24,26,28-tetraene-2,3,10,14,20-pentone] | < 500 | 0.3 to 1 | < 0.8
CO[C@@H]1C[C@H](C[C@@H](C)[C@@H]2CC(=O)[C@H](C)/C=C(\C)[C@@H](O)[C@@H](OC)C(=O)[C@H](C)C[C@H](C)/C=C/C=C/C=C(\C)[C@@H](OCC3COC3)C[C@@H]3CC[C@@H](C)[C@@](O)(O3)C(=O)C(=O)N3CCCC[C@H]3C(=O)O2)CC[C@H]1O [Compound 521, (1R,9S,12S,15R,16E,18R,19R,21R,23S,24E,26E,28E,30S,32S,35R)-1,18-dihydroxy-12-[(2R)-1-[(1S,3R,4R)-4-hydroxy-3-methoxycyclohexyl]propan-2-yl]-19-methoxy-15,17,21,23,29,35-hexamethyl-30-[(oxetan-3-yl)methoxy]-11,36-dioxa-4-azatricyclo[30.3.1.04,9]hexatriaconta-16,24,26,28-tetraene-2,3,10,14,20-pentone] | 500 to 1100 | < 0.3 | < 0.8
CO[C@@H]1C[C@H](C[C@@H](C)[C@@H]2CC(=O)[C@H](C)/C=C(\C)[C@@H](O)[C@@H](OC)C(=O)[C@H](C)C[C@H](C)/C=C/C=C/C=C(\C)[C@@H](OCCO)C[C@@H]3CC[C@@H](C)[C@@](O)(O3)C(=O)C(=O)N3CCCC[C@H]3C(=O)O2)CC[C@H]1OCCCN1CCOC[C@H]1C [Compound 404, (1R,9S,12S,15R,16E,18R,19R,21R,23S,24E,26E,28E,30S,32S,35R)-1,18-dihydroxy-30-(2-hydroxyethoxy)-19-methoxy-12-[(1R)-2-[(1S,3R,4R)-3-methoxy-4-[3-[(3R)-3-methylmorpholin-4-yl]propoxy]cyclohexyl]-1-methyl-ethyl]-15,17,21,23,29,35-hexamethyl-11,36-dioxa-4-azatricyclo[30.3.1.04,9]hexatriaconta-16,24,26,28-tetraene-2,3,10,14,20-pentone] |  | < 0.3 | < 0.8

Reference: US20230331737A1, “MTORC1 MODULATORS AND USES THEREOF” (Aeovian Pharmaceuticals, Inc., priority 2020, published 2023)
